This note sets out measurements from patent US20110105397A1, “METHOD FOR TREATING HEART FAILURE WITH STRESSCOPIN-LIKE PEPTIDES” (priority 2009, published 2011).

The subject of test [1] is subjects with heart failure. As to the kind of experiment: Echocardiography substudy in heart failure subjects. Format: in vivo, human. The protocol:
An echocardiography substudy was conducted to examine the impact of h-SCP (SEQ ID NO:1) on cardiodynamic parameters. Five subjects elected to participate in the echocardiography substudy. One subject received placebo and 4 subjects received h-SCP (SEQ ID NO:1) at doses ranging from 9 to 45 ng/kg/min during their last 2.5-hour infusion period when the echocardiogram was obtained. […] Because of the small number of subjects who participated in this substudy and the varied dose administered the results are not conclusionary, but mainly indicative of the effect.

Test [2] deals with dogs with advanced heart failure. Kind of test: LV pressure-volume relationship in dogs with advanced heart failure, 120-min infusion. Format: in vivo, dog. To be noted: HF dogs. The protocol:
In a subsequent study baseline hemodynamic, ventriculographic, echocardiographic and LV pressure-volume was measured, before each dog was intravenously administered a continuous, 4.3 ng/kg/min infusion of h-SCP (SEQ ID NO:1) for 120 min. At the end of the 120-min infusion, complete hemodynamic, ventriculographic, echocardiographic, and LV pressure-volume measurements were repeated. Lead II on the electrocardiogram was monitored throughout the study for development of de novo ventricular arrhythmias. The dosing solutions were not adjusted or corrected for peptide content since the peptide content of the test article used in these studies fell between the customary 85-90% limit where this correction is not required. […]
All hemodynamic measurements were made during left and right heart catheterizations in anaesthelized dogs at each specified study time point. Aortic and LV pressures were measured using cathetenip micromanometers (Millar Instruments, Houston, Tex.), and LV end-diastolic pressure (LVEDP) was measured from the LV pressure waveform. […] Ventriculography were recorded on digital media at 30 frames per second during a power injection of 15 mL of contrast material (Conray; Mallinckrodt Inc., St. Louis, Mo.). […] The end-systolic and end-diastolic pressure-volume points were determined for beats at end-expiration in the usual fashion. […]

Several values for one entry are separate records, joined by “and”; a condition that tells them apart may be missing. Identical values can stand only once.

Turning to “H-TKFTLSLDVPTNIMNLLFNIAKAKNLRAQAAANAHLMAQI-NH2 [SEQ ID NO: 1, TKFTLSLDVPTNIMNLLFNIAKAKNLRAQAAANAHLMAQI-NH2]”, the “ejection fraction after infusion” value in test [1] (one subject, 9 ng/kg/min, from 20%) was 24.5%; in test [1] (one subject, 36 ng/kg/min, from 25.0%), 30.3%; in test [1] (two subjects, 45 ng/kg/min, from 36.0% and from 28.0%, listed as h-SCP) it was 34.7% and 26.1%. Besides, the “absolute value of EDPVR slope” value in test [2] (4.3 ng/kg/min infusion for 120 min (untreated 0.257)) was 0.128. In addition, in test [2] (4.3 ng/kg/min infusion for 120 min (untreated 1.38±0.26)), the “slope of the ESPVR” value was 2.26±0.46.
